Results reported in patent US9758505B2, “3-(indol-3-yl)-pyridine derivatives, pharmaceutical compositions and methods for use” (ITEOS THERAPEUTICS, priority 2014, dated 2017).

Tests used:
human TDO2 [1] = target: T1, human TDO2 (Homo sapiens (Human), UniProt P48775); assay: Assay for TDO2 enzymatic activity determination; type: biochemical; conditions: human recombinant TDO2, L-Trp 1 mM, kynurenine absorbance at 480 nm
Description: The compounds of formula I inhibit the enzymatic activity of human TDO2.
To measure the TDO2 activity, the procedure described in Dolusic et al. J. Med. Chem.; 2011, 54, […] was adapted: the reaction mixture contained (final concentrations) potassium phosphate buffer (50 mM, pH 7.5), ascorbic acid (0.25 M), methylene blue (0.125 μM), catalase (40 units/mL, from bovine liver, Sigma), and human recombinant TDO2 enzyme (prepared as described in Dolusic et al. J. Med. Chem.; 2011, 54, 5320-5334; 0.9 μg) without or with the compounds of the present invention at the indicated concentrations (total volume 112.5 μL). The reaction was initiated by the addition of 37.5 μL of L-Trp (final concentration 1 mM) at room temperature. The reaction was conducted at room temperature during one hour and stopped by the addition of 30 μL of 30% (w/v) trichloroacetic acid.
To convert N-formylkynurenine into kynurenine, the reaction mixture was incubated at 65° C. for 30 min. Then 150 μL of the reaction mixture was mixed with 120 μL of 2.5% (w/v) 4-(dimethylamino)-benzaldehyde in acetic acid and incubated for 5 min at room temperature. Kynurenine concentrations were determined by measuring the absorbance at 480 nm. A standard curve was made with pure kynurenine. The TDO activity was measured as described above using ten serial concentrations of the compounds of the present invention. Data were fitted using the Prism™ software (GraphPad Software, Inc.) using standard software configurations.

human TDO2 [2] = target: T1, human TDO2; assay: Cellular assay for TDO2 activity, hTDO2-overexpressing P815 cells; type: cell-based; conditions: murine mastocytoma P815 cells overexpressing hTDO2, overnight incubation, kynurenine in supernatant
Description: The compounds of Formula I inhibit the activity of human TDO2 in cells.
The assay (adapted from Pilotte L et al., Proc Natl Acad Sci USA, 2012, 109(7), 2497-502) was performed in 96-well flat bottom plates seeded with murine mastocytoma P815 cells overexpressing hTDO2 (prepared as described in Pilotte et al., PNAS, 2012, 109(7), 2497-2502), at a concentration of 5×10^4 cells/well in a final volume of 200 μL. To determine TDO or IDO activity, the cells were incubated overnight at 37° C. at 5% CO2 in IMDM (Invitrogen) supplemented with 2% FBS and 2% penicillin/streptomycin in the presence of the compounds of the present invention, at different concentrations. The cells may be obtained from the American Type Cuylture Collecion [ATCC® TIB-64™ or commercially, e.g., from Sigma-Aldrich or Life Technologies.]
(§1) The plates were then centrifuged 5 min at 1000 rpm, and 100 μL of the supernatant were collected in a conical plate, 30 uL of TCA 30% were added and a further centrifugated at 3000×g for 10 minutes. 100 μL of the supernatant were collected in a flat bottomed plate and 100 μL of 2% (w/v) 4-(dimethylamino)-benzaldehyde in acetic acid and incubated for 5 min at room temperature. Kynurenine concentrations were determined by measuring the absorbance at 480 nm. A standard curve was made with pure kynurenine. The TDO activity was measured as described above using ten serial concentrations of the compounds of the present invention. Data were fitted using the Prism™ software (GraphPad Software, Inc.) using standard software configurations.

human TDO2 [3] = target: T1, human TDO2; assay: Cellular assay for TDO2 activity, A172 cells naturally expressing hTDO2; type: cell-based; conditions: human glioblastoma A172 cells, overnight incubation, kynurenine in supernatant
Description: A172 is a cell line derived from human brain glioblastoma cells.
To determine TDO, the cells were incubated overnight at 37° C. at 5% CO2 in IMDM (Invitrogen) supplemented with 2% FBS and 2% penicillin/streptomycin in the presence of the compounds of the present invention, at different concentrations.
as §1

TDO2 = TDO2 (Mus musculus (Mouse), UniProt P48776); assay: Pharmacodynamic assay for TDO2 in vivo activity: increase of blood tryptophan levels in mice; conditions: female BALB/c mice, 2 h
Description: The compounds of the present invention increase the amount of Tryptophan in mouse blood.

Sequence of TDO2 (P48776 whole entry): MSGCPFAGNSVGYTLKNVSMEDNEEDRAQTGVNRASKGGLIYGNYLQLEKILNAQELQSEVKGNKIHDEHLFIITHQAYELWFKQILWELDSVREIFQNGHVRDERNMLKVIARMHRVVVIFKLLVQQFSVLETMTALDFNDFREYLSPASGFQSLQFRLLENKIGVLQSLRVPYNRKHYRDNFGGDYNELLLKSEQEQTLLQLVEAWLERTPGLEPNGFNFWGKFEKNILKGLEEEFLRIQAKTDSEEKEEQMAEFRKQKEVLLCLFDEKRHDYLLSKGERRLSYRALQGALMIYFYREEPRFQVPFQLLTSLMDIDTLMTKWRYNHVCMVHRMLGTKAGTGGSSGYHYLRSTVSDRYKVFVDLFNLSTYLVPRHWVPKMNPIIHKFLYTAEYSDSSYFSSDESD
T1 sequence (P48775 whole entry): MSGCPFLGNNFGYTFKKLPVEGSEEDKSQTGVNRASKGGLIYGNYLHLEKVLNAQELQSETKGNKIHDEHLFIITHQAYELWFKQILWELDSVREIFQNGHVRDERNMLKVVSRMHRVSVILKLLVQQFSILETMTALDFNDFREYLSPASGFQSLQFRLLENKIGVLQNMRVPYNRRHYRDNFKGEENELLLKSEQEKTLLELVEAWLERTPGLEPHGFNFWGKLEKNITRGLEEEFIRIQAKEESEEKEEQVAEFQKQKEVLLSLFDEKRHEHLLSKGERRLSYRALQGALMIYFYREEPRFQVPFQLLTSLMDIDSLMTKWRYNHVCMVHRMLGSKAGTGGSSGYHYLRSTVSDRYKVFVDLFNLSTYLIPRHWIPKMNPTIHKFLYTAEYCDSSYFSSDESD

Compound | IC50 (human TDO2 [1]) | IC50 (human TDO2 [2]) | further results
CN(C)CCNc1ccc(-c2c[nH]c3cc(F)ccc23)cn1 [Example 25, N^1-(5-(6-fluoro-1H-indol-3-yl)pyridin-2-yl)-N^2,N^2-dimethylethane-1,2-diamine] | 540 nM | 140 nM | –
Fc1ccc2c(-c3ccc(N4CCOCC4)nc3)c[nH]c2c1 [Example 9, 4-(5-(6-fluoro-1H-indol-3-yl)pyridin-2-yl)morpholine] | 540 nM | 210 nM | –
CNc1ccc(-c2c[nH]c3cc(F)ccc23)cn1 [Example 34, 5-(6-fluoro-1H-indol-3-yl)-N-methylpyridin-2-amine] | 290 nM | 240 nM | IC50 (human TDO2 [3]): 1600 nM
Fc1ccc2c(-c3cccnc3)c[nH]c2c1 [Example 44, 6-fluoro-3-(pyridin-3-yl)-1H-indole] | 850 nM | 68 nM | IC50 (human TDO2 [3]): 600 nM
CS(=O)(=O)NCCCNc1ccc(-c2c[nH]c3cc(F)ccc23)cn1 [Example 21, N-(3-(5-(6-fluoro-1H-indol-3-yl)pyridin-2-ylamino)propyl)methanesulfonamide] | 620 nM | 350 nM | –
Fc1cc2[nH]cc(-c3cccnc3)c2cc1F [Example 47, 5,6-difluoro-3-(pyridin-3-yl)-1H-indole] | 2800 nM | 240 nM | –

Now from value to compound, other results behind:

IC50 (human TDO2 [1]) | IC50 (human TDO2 [2]) | Compound | further results
970 nM | 610 nM | CS(=O)(=O)NC1CCN(c2ccc(-c3c[nH]c4cc(F)ccc34)cn2)CC1 [Example 14, N-(1-(5-(6-fluoro-1H-indol-3-yl)pyridin-2-yl)piperidin-4-yl)methanesulfonamide] | IC50 (human TDO2 [3]): 1800 nM; Tryptophan concentration in plasma (average ± standard error of the mean) (TDO2; 30 mg/kg oral gavage): 27976 ± 1196; increase of circulating Tryptophan compared to vehicle-treated controls (TDO2; 30 mg/kg oral gavage): 33%; Tryptophan concentration in plasma (average ± standard error of the mean) (TDO2; 60 mg/kg oral gavage): 33862 ± 1529; increase of circulating Tryptophan compared to vehicle-treated controls (TDO2; 60 mg/kg oral gavage): 61%; Tryptophan concentration in plasma (average ± standard error of the mean) (TDO2; 100 mg/kg oral gavage): 35716 ± 1663; increase of circulating Tryptophan compared to vehicle-treated controls (TDO2; 100 mg/kg oral gavage): 70%
790 nM | 120 nM | NC(=O)CNc1ccc(-c2c[nH]c3cc(F)ccc23)cn1 [Example 31, 2-(5-(6-fluoro-1H-indol-3-yl)pyridin-2-ylamino)acetamide] | –
720 nM | 130 nM | CN1CCN(c2ccc(-c3c[nH]c4cc(F)ccc34)cn2)CC1 [Example 10, 6-fluoro-3-(6-(4-methylpiperazin-1-yl)pyridin-3-yl)-1H-indole] | –
1600 nM | 1500 nM | O=C(O)CNc1ccc(-c2c[nH]c3cc(F)ccc23)cn1 [Example 30, 2-(5-(6-fluoro-1H-indol-3-yl)pyridin-2-ylamino)acetic acid] | –
870 nM | 1300 nM | Fc1ccc2c(-c3ccc(NC4CCNCC4)nc3)c[nH]c2c1 [Example 17, 5-(6-fluoro-1H-indol-3-yl)-N-(piperidin-4-yl)pyridin-2-amine] | –
1000 nM | 150 nM | CC(=O)Nc1ccc(-c2c[nH]c3cc(F)ccc23)cn1 [Example 40, N-(5-(6-fluoro-1H-indol-3-yl)pyridin-2-yl)acetamide] | IC50 (human TDO2 [3]): 130 nM
39000 nM | 680 nM | CN(C)CCOc1ccc(-c2c[nH]c3cc(F)ccc23)cn1 [Example 4, 2-(5-(6-fluoro-1H-indol-3-yl)pyridin-2-yloxy)-N,N-dimethylethanamine] | –
490 nM | 190 nM | OCCNc1ccc(-c2c[nH]c3cc(F)ccc23)cn1 [Example 27, 2-(5-(6-fluoro-1H-indol-3-yl)pyridin-2-ylamino)ethanol] | –
1200 nM | 400 nM | CS(=O)(=O)CCCNc1ccc(-c2c[nH]c3cc(F)ccc23)cn1 [Example 22, 5-(6-fluoro-1H-indol-3-yl)-N-(3-(methylsulfonyl)propyl)pyridin-2-amine] | –
